Assay results taken from PubChem BioAssay (NCI).
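Compound exposure: 48 hours, 5 concentrations, 96-well plates. The concentration for full growth arrest is given as TGI.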

How the values were obtained:
Assay in all cases: NCI-60 cell line screen, 48 h
A498 renal = test system: A498 renal
BT-549 breast = test system: BT-549 breast
DU-145 prostate = test system: DU-145 prostate
HCT-116 colon = test system: HCT-116 colon
HOP-92 NSCLC = test system: HOP-92 NSCLC
LOX IMVI melanoma = test system: LOX IMVI melanoma
PC-3 prostate = test system: PC-3 prostate
SF-295 CNS = test system: SF-295 CNS
SNB-19 CNS = test system: SNB-19 CNS
SR leukemia = test system: SR leukemia
UACC-62 melanoma = test system: UACC-62 melanoma
UO-31 renal = test system: UO-31 renal

**Q.** For `O=[N+]([O-])C(=C/C1CCCCC1)/C(=C\C1CCCCC1)[N+](=O)[O-]`, which TGI (A498 renal) is on record?
**A.** Its TGI is 30 µM.

**Q.** What about the TGI (BT-549 breast) of the same compound?
**A.** Its TGI is 12.5 µM.

**Q.** And the TGI (DU-145 prostate)?
**A.** The TGI was 26.7 µM.

**Q.** And the TGI (HCT-116 colon)?
**A.** Its TGI is 17.7 µM.

**Q.** And the TGI (HOP-92 NSCLC)?
**A.** The TGI was 20.2 µM.

**Q.** And the TGI (LOX IMVI melanoma)?
**A.** Its TGI is 4.94 µM.

**Q.** And the TGI (PC-3 prostate)?
**A.** The TGI was 34.4 µM.

**Q.** And the TGI (SF-295 CNS)?
**A.** The TGI was 32.8 µM.

**Q.** What about the TGI (SNB-19 CNS) of the same compound?
**A.** The TGI was 35.7 µM.

**Q.** What about the TGI (SR leukemia) of the same compound?
**A.** Its TGI is 6.89 µM.

**Q.** And the TGI (UACC-62 melanoma)?
**A.** Its TGI is 17.6 µM.

**Q.** And the TGI (UO-31 renal)?
**A.** The TGI was 22.4 µM.
